{"source": "patent US20100075907A1", "about": "“NEUROMEDIN U RECEPTOR AGONISTS AND USES THEREOF” (priority 2006, published 2010)", "key": {"[1]": {"biological_target": "hNMUR2 (Homo sapiens, UniProt Q9GZQ4)", "sequence (Q9GZQ4 whole entry)": "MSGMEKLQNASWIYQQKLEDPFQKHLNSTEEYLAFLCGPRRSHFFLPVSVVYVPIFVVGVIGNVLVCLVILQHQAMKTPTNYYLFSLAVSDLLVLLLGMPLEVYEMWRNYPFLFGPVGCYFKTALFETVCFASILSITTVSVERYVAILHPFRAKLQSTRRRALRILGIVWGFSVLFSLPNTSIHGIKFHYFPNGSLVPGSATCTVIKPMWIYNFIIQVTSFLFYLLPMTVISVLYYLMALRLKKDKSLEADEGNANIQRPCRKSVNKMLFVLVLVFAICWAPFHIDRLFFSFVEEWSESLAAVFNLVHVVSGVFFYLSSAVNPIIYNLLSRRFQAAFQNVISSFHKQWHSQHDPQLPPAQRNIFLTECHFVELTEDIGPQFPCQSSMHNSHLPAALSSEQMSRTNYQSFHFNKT", "test": "In vitro functional assay, HEK-hR2 cells", "type": "cell-based", "parameters": "expressed in transfected cells; host or cells: FLP-In CHO or HEK-293 FLP-In cells (pcDNA5); HEK-293/aeq17 lines (pcDNA3.1) were also made; % Activity: concentration or dose not given beside the values", "conditions": "Table 8, HEK-hR2, functional", "text": "(§1) Human, mouse or rat cDNAs encoding NMUR1 or NMUR2 (as described in Howard et al. Nature 406: 70-74 (2000) were subcloned in pcDNA5 (Invitrogen) and transfected into FLP-In CHO cells and HEK-293 FLP-In cells purchased from Invitrogen (Carlsbad, Calif.) using lipofectamine (Invitrogen). The Flp-In system allows integration and expression of a particular gene of interest at a specific genomic location utilizing the Flp recombinase from yeast. The transfected cells were selected by growth in medium containing 200 μg/mL hygromycin (Invitrogen). Populations were frozen at early passage numbers, and these stocks were used for further studies. Stable clones that expressed the mRNAs were identified functionally by FLIPR as well as by RT-PCR. […] Two different rodent NMUR1 cell lines were thus generated: one with the codon as predicted from the genomic databases and another cell line with an engineered methionine (ATG) as the start codon. Additionally, stable cell lines expressing the human receptors were generated in HEK-293/aeq17 cells which stably express the aequorin gene under the CMV promoter. The human NMUR2 cDNA was cloned into pcDNA3.1 and human NMUR1 was subcloned into pIRES-puro (Clontech, Mountain View, Calif.), after transfection cells were selected in media containing G418 and either hygromycin (NMUR2) or puromycin (NMUR1).\n(§2) The NMU receptors signal primarily through Gαq/11 proteins; therefore calcium mobilization assays can be utilized for functional activity.\n(§3) Stable cell lines expressing human and or rodent NMUR1 or human NMUR2 receptors were plated at a density of 12,000 cells per well overnight on poly-lysine coated 384-well black-walled plates. The following day, the media was removed from the plates and the cells were subsequently loaded with Fluo-3 (Molecular Probes), a calcium sensitive dye, diluted in FLIPR buffer (1× Hank's buffered saline containing 20 mM HEPES, 0.1% BSA, 2.5 mM probenecid (Sigma) and 1.6 mM TR40). All reagents are from Invitrogen unless otherwise noted. Peptide stocks were resuspended in DMSO at a stock concentration of 2 mM and diluted in FLIPR buffer on the day of the experiment to a 4 μM working stock solution.\n(§4) After a 90 minute incubation at room-temperature, cell plates were loaded onto a FLIPR (Molecular Devices) to monitor cellular fluorescence (excitation=488 nm; emission=540 nm) before and after compound/peptide addition. Eight to twelve point dose responses were tested on NMUR-expressing cell lines using FLIPR with 1 μM peptide as the highest dose. The response after peptide addition was taken as the maximum fluorescence units minus the fluorescence immediately prior to stimulation for each well. EC50 values were calculated using GraphPad Prism (San Diego, Calif.) software.\nIn addition to FLIPR, NMU receptor function can also be evaluated using an aequorin assay. Stable cell lines expressing the aequorin jelly fish gene can be used to report the activation of GPCRs by monitoring intracellular calcium mobilization. The objective is to identify compounds which specifically stimulate aequorin bioluminescence. Calcium-dependent luminescence is generated by the treatment of cells with the coelenterate luciferin, coelenterazine. Briefly, confluent monolayers of HEK-293/aeq 17 cells expressing hNMUR1 or hNMUR2 are “charged” with coelenterazine (Molecular Probes, Carlsbad, Calif.). Confluent T75 flasks are rinsed with media containing 300 μM glutathione and 0.1% FBS. Cells are incubated at 37° C. for one hour in 8 mL media, 0.1% FBS, 300 μM glutathione, and 20 μM coelenterazine. T75 flasks are subsequently rinsed with 6 mL ECB buffer (140 mM NaCl, 20 mM KCl, 20 mM HEPES, 5 mM glucose, 1 mM MgCl, 1 mM CaCl2, 0.1 mg/mL BSA, PH 7.3-7.4). Cells are removed from the flask in ECB buffer, pelleted, and resuspended at a density of 2×10^5 cells/mL. Agonists are added to the cells and activity is determined using a luminometer."}, "[2]": {"biological_target": "T1, rat NMUR1-TTG (Rattus norvegicus, UniProt Q9JJI5)", "T1 sequence (Q9JJI5 1-425)": "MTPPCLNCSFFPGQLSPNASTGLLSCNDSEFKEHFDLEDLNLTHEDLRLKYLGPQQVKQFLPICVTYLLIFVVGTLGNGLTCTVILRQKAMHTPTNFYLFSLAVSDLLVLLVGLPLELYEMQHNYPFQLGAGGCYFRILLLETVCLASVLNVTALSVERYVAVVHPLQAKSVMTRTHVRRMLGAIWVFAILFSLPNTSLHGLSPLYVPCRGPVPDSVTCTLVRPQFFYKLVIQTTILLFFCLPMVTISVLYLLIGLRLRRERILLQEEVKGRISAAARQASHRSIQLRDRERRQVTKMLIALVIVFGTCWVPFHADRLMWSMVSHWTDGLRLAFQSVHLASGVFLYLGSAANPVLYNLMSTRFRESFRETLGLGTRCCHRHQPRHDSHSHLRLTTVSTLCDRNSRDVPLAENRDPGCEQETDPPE", "test": "FLIPR calcium mobilization assay, rat NMUR1-TTG", "type": "cell-based", "parameters": "expressed in transfected cells; host or cells: FLP-In CHO or HEK-293 FLP-In cells (pcDNA5)", "conditions": "functional, rat R1-TTG, relative to native hNMU responses", "text": "as §1, §2, §3, §4\nIn vitro responses of Neuromedin U receptor agonists (NMU1 to NMU25) in the FLIPR assay for human (Table 3), mouse (Table 4) and rat (Table 5) NMUR1 and NMUR2. EC50s are reported in nM values. Percent activity refers to the maximum response at 1 μM compared to the hNMU-25 response at the same concentration. NT=not tested."}}, "note": "Non-standard residues stand in square brackets, D forms with d. Residues, ends and D or L forms follow the SMILES beside them."}
{"smiles": "CC(C)C[C@@H](NC(=O)[C@H](Cc1ccccc1)NC(=O)[C@H](Cc1ccc(O)cc1)NC(=O)CNC(=O)[C@H](CCCNC(=N)N)NC(=O)[C@H](CO)NC(=O)[C@H](CCC(N)=O)NC(=O)[C@H](CO)NC(=O)[C@H](C)NC(=O)[C@H](Cc1ccccc1)NC(=O)[C@@H]1CCCN1C(=O)[C@H](CO)NC(=O)[C@H](CCC(N)=O)NC(=O)[C@H](Cc1ccccc1)NC(=O)[C@H](CCC(=O)O)NC(=O)[C@H](CCC(=O)O)NC(=O)[C@H](CC(=O)O)NC(=O)[C@@H](NC(=O)[C@H](CCCNC(=N)N)NC(=O)[C@@H](N)Cc1ccccc1)C(C)C)C(=O)N[C@@H](Cc1c[nH]c2ccccc12)C(=O)N[C@@H](CCCNC(=N)N)C(=O)N1CCC[C@H]1C(=O)N[C@@H](CCCNC(=N)N)C(=O)N[C@@H](CC(N)=O)C(N)=O", "note": "[Agonist H] (H-FRVDEEFQSPFASQSRGYF[dL]WRPRN-NH2; N-terminus assumed)", "values": [{"measurement": "% Activity", "setting": "[1]", "result": 0, "unit": "%"}, {"measurement": "IC50", "setting": "[1]", "result": "> 1000", "unit": "nM"}, {"measurement": "% Activity", "setting": "[2]", "result": 91, "unit": "%"}]}
